Each block holds one molecule with its values, some of them ahead of it. Bridges are numbered along the chain shown (N, C = ends). Where no end group is shown, it is not given here.
Assays:
[1] = Measurement of body weight in insulin-using Type II diabetes patients, 4-week study; format: in vivo, human; details: 4 weeks, change from baseline
Protocol: Study participants were males and females 25 to 78 years of age with a history of Type II diabetes mellitus requiring treatment with insulin for at least 6 months prior to the pre-screening visit. […] The study employed methods described in Thompson et al., Diabetes 46:632-636 (1997). Following a placebo lead-in period, patients were randomized to receive placebo or one of three dose regimens of ^25,28,29Pro-h-amylin (pramlintide) for 4 weeks: 30 μg QID (before breakfast, lunch, dinner and evening snack), 60 μg TID (before breakfast, lunch and dinner) or 60 μg QID (before breakfast, lunch, dinner and evening snack). Throughout the study drug period, patients self-administered four injections of study drug daily, within 15 minutes of each meal and the evening snack. During the double-blind period, patients randomized to pramlintide 60 μg TID administered placebo before the evening snack. Both pramlintide and placebo were administered as separate injections into the subcutaneous tissue of the anterior abdominal wall; the specific site was alternated after each injection. Patients were instructed to remain on their usual diet, insulin and exercise regimens throughout the study, unless otherwise instructed by the investigator, and to abstain from alcoholic beverages prior to all clinic visits.

[2] = Tritiated glucose gastric emptying assay; format: in vivo, rat
Description: In a phenol red method, which is described in Example 7 below, conscious rats receive by gavage an acoloric gel containing methyl cellulose and a phenol red indicator. Twenty minutes after gavage, animals are anesthetized using halothane, the stomach exposed and clamped at the pyloric and lower esophageal sphincters, removed and opened into an alkaline solution. Stomach content may be derived from the intensity of the phenol red in the alkaline solution, measured by absorbance at a wavelength of 560 nm. In a tritiated glucose method, which is described in Example 8 below, conscious rats are gavaged with tritiated glucose in water. The rats are gently restrained by the tail, the tip of which is anesthetized using lidocaine. Tritium in the plasma separated from tail blood is collected at various timepoints and detected in a beta counter. Test compounds are normally administered about one minute before gavage.
Conscious, non-fasted, Harlan Sprague Dawley rats were restrained by the tail, the tip of which was anesthetized using 2% lidocaine. Tritium in plasma separated from tail blood collected 0, 15, 30, 60, 90 and 120 minutes after gavage was detected in a beta counter.

[3] = molecular target: amylin receptors in membranes of rat basal forebrain (nucleus accumbens and surrounding regions) (rat); test: competition with 125I-rat amylin on rat basal forebrain membranes

Molecule: CC[C@H](C)[C@H](NC(=O)[C@@H]1CCCN1C(=O)CNC(=O)[C@H](Cc1ccccc1)NC(=O)[C@H](CC(N)=O)NC(=O)[C@H](CC(N)=O)NC(=O)[C@H](CO)NC(=O)[C@H](CO)NC(=O)[C@H](Cc1c[nH]cn1)NC(=O)[C@@H](NC(=O)[C@H](CC(C)C)NC(=O)[C@H](Cc1ccccc1)NC(=O)[C@H](CC(N)=O)NC(=O)[C@H](C)NC(=O)[C@H](CC(C)C)NC(=O)[C@H](CCCNC(=N)N)NC(=O)[C@H](CCC(N)=O)NC(=O)[C@@H](NC(=O)[C@H](C)NC(=O)[C@@H]1CSSC[C@H](NC(=O)[C@@H](N)CCCCN)C(=O)N[C@@H](CC(N)=O)C(=O)N[C@@H]([C@@H](C)O)C(=O)N[C@@H](C)C(=O)N[C@@H]([C@@H](C)O)C(=O)N1)[C@@H](C)O)C(C)C)C(=O)N[C@@H](CC(C)C)C(=O)N1CCC[C@H]1C(=O)N1CCC[C@H]1C(=O)N[C@H](C(=O)N[C@@H](CC(N)=O)C(=O)N[C@H](C(=O)NCC(=O)N[C@@H](CO)C(=O)N[C@@H](CC(N)=O)C(=O)N[C@H](C(=O)N[C@@H](Cc1ccc(O)cc1)C(N)=O)[C@@H](C)O)C(C)C)[C@@H](C)O [Pramlintide, ^25,28,29Pro-h-amylin]
Body Weight: Change at Week 4, Median ([1]; 30 μg QID subcutaneous): -0.45 kg | Body Weight: Change at Week 4, Median ([1]; 60 μg QID subcutaneous): -0.45 kg | Body Weight: Change at Week 4, Median ([1]; 60 μg TID subcutaneous): -1.05 kg

Molecule: rat amylin
ED50 derived from the logistic fit (plasma tritium AUC over 30 minutes) ([2]; non-fasted Harlan Sprague Dawley rats, subcutaneous 1 minute before gavage): 0.35 μg | Absorption of the label (plasma tritium) ([2]; subcutaneous injection, 0.1-100 μg): dose-dependently slowed and/or delayed the absorption of the label

IC50 [3]: 0.31 nM
B1: ^2,7Cyclo-[^2Asp, ^7Lys]-h-Amylin (peptide)
peptide: KDNTATKATQRLANFLVHSSNNFGAILSSTNVGSNTY
modifications: lactam 2-7; ends not checked

— patent US7910548B2, “Methods for treating obesity” (Amylin Pharmaceuticals, Inc., priority 1997, dated 2011)
